One experiment relates to ER. The experiment can be described thus: ER tubule-to-sheet live-cell imaging in COS cells (prlss-KDEL-mRFP). The following applies: 10 iM, 2 h. The format is cell-based. On the procedure: FIG. 7: FLI-06 induces ER sheet formation. A) COS cells transfected with prlss-KDEL-mRFP were incubated with 10 μM FLI-06 for indicated times and imaged by live-cell microscopy. The inserts are magnifications of the boxed areas. B) Images from cells treated as in A) were scored for the percentage of cells that lost most of their ER-tubules. For each time point 40-60 cells were counted. Data represent mean percentages, error bars SEM, n=3 independent experiments.
FIG. 16: Only ER exit inhibitors convert ER tubules to sheets. COS cells plated on LabTek chambered coverslips were transiently transfected with the ER-marker prlss-KDEL-mRFP, incubated the next day for 2 h with 10 iM of indicated compounds and imaged by live-cell microscopy. […] FLI-06+CHX, cells were additionally incubated in 40 iM cycloheximide. Nife, nifedipine; nimo, nimodipine. Numbers refer to numbering in FIG. 5a.
We noted a morphological change of the ER upon FLI-06 incubation that was difficult to capture in fixed cells. Live-cell imaging was therefore performed in COS cells transfected with the ER marker prlss-KDEL-mRFP (supp. Ref 3) and FLI-06 was added for 120 min (FIG. 7a). After 120 min almost all cells had no detectable ER-tubules anymore and instead were filled with large sheet-like structures. […] To test whether the morphological change is related to the inhibition of ER exit, next our set of FLI-06 derivatives was tested. […] Rather, the ER-sheets are indicative for structural changes, maybe initiated within ERES, that inhibit ER exit.

The test system of experiment [1] is NotchΔE-EGFP. The experiment can be described thus: cells. The class given is cell-based. An excerpt: To identify novel regulatory factors involved in Notch trafficking/processing an image-based high content screen was set up. […] NotchΔE-EGFP is a direct substrate for γ-secretase at the PM, and under physiological conditions is proteolytically processed to NICD-EGFP that translocates into the nucleus (for scheme see FIG. 1b), resulting in a strong nuclear EGFP-staining in steady state^15 (FIG. 1d). […] Importantly, changes in subcellular localization of the reporter are amenable to quantitation by automated microscopy^15. Accordingly, reporter fluorescence was determined in the nucleus (nuc) and in a ring around the nucleus (enuc), and the ratio enuc/nuc was evaluated (schematized in FIG. 1c). Thereafter, the assay design was functionally validated. […] The assay also reliably detected trafficking defects in the secretory pathway. […] Taken together, the assay was validated for reliably detecting concentration and time dependent changes in trafficking and processing of the Notch reporter.
Cells were seeded in 96-well plates at a density of 5000 cells/well in 100 μl medium. The next day, 100 μl medium containing the respective test compounds was added. Cells were incubated for 16 h, fixed and processed for automated microscopy. For the putative gamma-secretase inhibitors the enuc intensity was divided by the DAPT control and for the trafficking inhibitors normalized percentage inhibition against DAPT/DMSO controls of log 2 transformed nuc/enuc ratios were calculated. Relative activity values were read into “R” (http://www.r-project.org/) and EC50 estimates were calculated using four-parameter log-logistic fit with the package “drc”^51.
Images were acquired on an ArrayScan VTi automated microscope (ThermoFisher) and numerical data were extracted with the Compartmental Analysis BioApplication of the bundled software suite. Compound screening raw data were collected at the FMP and data transformation was performed according to standard procedures (ref 17 and supp. Refs 6-7).

A further experiment concerns γ-secretase. Briefly: In vitro γ-secretase assay with isolated membranes. The format is biochemical. As to conditions: 37° C. On the procedure:
(§1) FIG. 3: Effect of compounds on NotchΔE-EGFP, APP and Klotho trafficking and processing. a) HEK293 stably expressing APPswe or Klotho (KI) were incubated with DAPT or compounds (10 μM) for 16 h. Media were collected, cells lysed and both assayed by Western blotting using indicated antibodies. m, mature; im, immature; s, shedded ectodomain; CTF, C-terminal fragment. b) Membranes from HeLa-NotchΔE-EGFP and APPswe cells were isolated and subjected to a γ-secretase in vitro assay in the presence of DAPT or compounds as indicated. NICD and AICD were detected by Western Blotting using antibodies against the C-terminus of APP (top) or antibodies specific for NICD (bottom). c) Quantitation from 5 independent experiments.
To test whether FLI-06 affected other membrane proteins, Klotho, a type I protein processed like APP and Notch^20, was analyzed. […] To analyze γ-secretase activity, in vitro assays using isolated membranes were performed (FIG. 3b, c). Production of NICD-EGFP and AICD (APP intracellular domain) were assayed. Both were produced in vitro at 37° C. but not at 4° C., and their production was inhibited by DAPT.
For assaying AICD formation, membranes of HEK293 cells stably expressing APP with the Swedish mutation were isolated and incubated for 4 h at 37° C. according to Sastre et al.^52. For assaying NICD formation, membranes from HeLa NotchΔE-EGFP cells were mixed with membranes from HeLa NotchΔE-EGFP cells that were pre-treated with 10 μM DAPT overnight to enrich substrate. After incubation samples were loaded onto either 8% SDS-PA gels (NICD) or 10-20% Tris-Tricine gels (AICD), blotted and probed with cleaved-Notch antibody or antibody 6687 against APP C-terminus^53. Chemoluminescence was quantified on a LAS-4000 (Fuji) with MultiGauge software.

For experiment [2], the system named is NotchΔE-EGFP. The experiment can be described thus: Western blot of NotchΔE-EGFP processing in HeLa NotchΔE-EGFP lysates. The class given is cell-based. The following applies: 10 μM, 18 h. On the procedure: FIG. 2: Selected compounds from final hit list show distinct phenotypes. Hela NotchΔE-EGFP cells were incubated with compounds (10 μM) for 18 h, fixed and analyzed by fluorescence microscopy (a) or lysed, separated by SDS-PAGE, blotted and probed with antibodies against GFP and NICD (b). Tubulin served as loading control. c) Quantitation of NotchΔE-EGFP accumulation and NICD production from 3-4 experiments as shown in (b). […] Arrows, plasma membrane; scalebar, 10 μm.
Next, lysates of HeLa NotchΔE-EGFP cells treated with compounds were analyzed for processing of NotchΔE-EGFP by Western blot using antibodies specific for EGFP and NICD (FIG. 2b, c). The GFP antibody detected both the uncleaved reporter NotchΔE-EGFP and the γ-secretase product NICD-EGFP, whereas the NICD-specific antibody specifically detected cleaved NICD-EGFP. […] The observed effects were not cell type specific, as they were also apparent in U2OS cells stably expressing NotchΔE-EGFP (FIG. 9).
For orientation: A western blot detects proteins with antibodies after separation by electrophoresis.

In experiment [3] the test system is NotchΔE-EGFP. The experiment can be described thus: Fluorescence microscopy of reporter localization in HeLa NotchΔE-EGFP cells. The class given is cell-based. The following applies: 10 μM compound, 24 h. On the procedure:
FIG. 10: Phenotypes of Notch inhibitors are fully reversible. HeLa NotchΔE-EGFP cells plated in LabTek coverglass were incubated for 18 h with 10 iM of indicated compounds, washed and incubated for indicated times in cell culture medium. Cells were imaged by live-microscopy. […] Scalebar, 10 im.
For a detailed analysis of subcelluar distribution of NotchΔE/NICD the resolution of the HCS images was not sufficient. Therefore, the reporter cell line was plated on coverslips and incubated with 10 μM of individual compounds from the final hit list. After 24 h the localization of NotchΔE-EGFP/NICD-EGFP was determined by fluorescence microscopy. […] (FIG. 8).
Immunofluorescence stainings were made using standard procedures^55. Imaging was performed on a Zeiss Axiovert200 or an Axio Imager, using 63× 1.4NA objectives and Zeiss Axiovision software. For live-imaging cells were plated on Lab-Tek chambered coverglass (Thermo-Fisher). Images were assembled and processed using Adobe Photoshop. For displaying weakly stained ER-tubules/sheets non-linear changes in gamma-settings were used.

The subject of another experiment is APP. The experiment can be described thus: APP processing in HEK293 cells stably expressing APPswe. The following applies: 10 μM, 16 h. The format is cell-based. On the procedure: as §1
To test if the compounds that affected NotchΔE-EGFP processing also affected APP processing, HEK293 cells were used that stably expressed APPswe, a mutated APP that yields robust amounts of Aβ^18. […] All other compounds had no effect on APPCTF or Aβ.
APP, APPs, APPCTF and Aβ detection was as described before^54 using antibodies 22C11 for APP and APPs, 6687 for APPCTF and 3552 and 2D8 for Aβ. Klotho was detected as described in Bloch et al.^20. Chemoluminescence was quantified on a LAS-4000 (Fuji) with MultiGauge software.

A further experiment deals with zebrafish embryos. The experiment can be described thus: Zebrafish embryo Notch phenotype (somites, ngn1 qPCR and ISH). The class given is in vivo, zebrafish Danio rerio. The following applies: 50 μM. On the procedure:
(§2) Cells were incubated with DAPT or 10 μM of the indicated compounds (50 μM in case of FLI-15 and -20) and after 16 h a luciferase assay was performed. […] Changes in relative gene expression levels (fold change) relative to the expression levels in DMSO controls are represented as the mean+/−SD, asterisks indicate p<0.01. Each measurement was taken from two independent samples. Each reaction was measured in triplicate. Changes in the relative expression of ngn1 were standardized to the expression of the housekeeping gene ef1a at 20 hpf. c) ISH with riboprobes specific for ngn1 was performed on dechorionated stage 4 hpf zebrafish embryos. Anterior is to the left, dorsal to the top. Magnifications of the somite region (small box) are shown. Arrows indicate larger ngn1 clusters or stronger ngn1 staining. s, sensory neurons; i, intermediate neurons; m, motor neurons.
FIG. 11: Selected compounds affect somite formation and neurogenesis in vivo in zebrafish embryos. a) Lateral view of typical representative phenotypes induced by DAPT treatment, which were used as a reference to score the effect of compounds. […] Images were taken at 24 hpf. b) Pie chart showing the cumulative relative frequency of the phenotypes in a) at 24 hpf in embryos treated with 20, 50 and 100 iM of the indicated compounds. c) ISH with riboprobes specific for ngn1 was performed on dechorionated stage 4 hpf zebrafish embryos. Anterior is to the left, dorsal to the top. Magnifications of the developing head (box) are shown. Arrows indicate larger ngn1 clusters or stronger ngn1 staining. t, telencephalon; p, protectum; h, hindbrain; d, diencephalon; tg, tegmentum; vrc, ventral rostral cluster.
(§3) We wanted to test whether the results obtained with the NotchΔE-EGFP construct are relevant for endogenous Notch signaling. Therefore we made use of C2C12 cells, a well established model for muscle development that expresses endogenous Notch^21,22. After stimulating endogenous Notch signaling by transfecting the Notch ligand Delta, Notch activity was measured by a luciferase assay using a Notch reporter^15 in the presence or absence of compounds (FIG. 4a). […] Next, we tested whether selected compounds would affect Notch signaling in vivo. […] Compounds were added to dechorionated stage 4 hpf zebrafish embryos and the effects were analyzed after 24 h by morphological inspection of somite formation. Phenotypes were ranked to four categories, normal somites, mild somite defects, strong somite defects and developmental delay. […] As an additional parameter we decided to analyze Notch-dependent genes involved in neurogenesis. Primary neurogenesis in zebrafish involves the selection of neuroblasts (repressed by Notch) from proneural clusters (Notch expressing cells), a process regulated in a negative manner by Notch-dependent lateral inhibition^25. Accordingly, neuroblast cells that express the neuronal specification factor neurogenin (ngn1^26) became more abundant when Notch signaling was impaired, for instance upon DAPT treatment^23,27. qPCR analyses on mRNA extracted from equivalent sets of embryos was performed for ngn1 expression (FIG. 4b). […] To confirm the data obtained by qPCR, whole-mount in-situ hybridizations (ISH) using an ngn1 specific riboprobe were performed (FIG. 4c, FIG. 11c). […] Taken together, FLI-06, -14, -15, -19 and -20 inhibited endogenous Notch signaling in vitro and in vivo, corroborating the NotchΔE-EGFP reporter data.
Embryos were obtained from natural spawning of wild-type TüAB strain adults, raised and staged according to supp. Ref 14. DAPT and compounds were applied at 50 iM in E3 embryo medium to zebrafish embryos with chorions torn but not completely removed from sphere stage until the stage of analysis, according to ref 23. Control embryos were mock treated with the same concentration of DMSO dissolved in E3 embryo medium. […]

Experiment [4] concerns endogenous Notch signaling. Briefly: Luciferase Notch reporter assay in C2C12 cells transfected with Delta. The format is cell-based. As to conditions: 10 μM, 16 h. On the procedure:
as §2, §3
Endogenous Notch signaling in C2C12 was determined by a luciferase assay using a 12xCSL-luciferase reporter and transfected Delta as described before^15.
(In a reporter assay the amount or activity of a reporter protein is the signal.)

In the next experiment the test system is COPII vesicles. The experiment can be described thus: In vitro COPII budding assay with permeabilized cells. The format is biochemical. As to conditions: no FLI-06 pretreatment of cells.

`CC1=C(C(=O)OC2CCCCC2)C(c2ccccc2)C2=C(CC(C)(C)CC2=O)N1` (centres unmarked) [compound 5]: the ER tubule-to-sheets phenotype result in the experiment with ER was “elicited the tubule-to-sheets phenotype”.
`CC1=C(C(=O)OC2CCCCCC2)C(c2ccc([N+](=O)[O-])cc2)C2=C(CC(C)(C)CC2=O)N1` (centres unmarked) [FLI-28]: in the experiment on NotchΔE-EGFP [1] (enuc/nuc ratios in NotchΔE-EGFP cells), the “activity relative to compound 1 (FLI-06)” value was “twice as active as compound 1”. The ER tubule-to-sheets phenotype result in the experiment on ER was “elicited the tubule-to-sheets phenotype”.
As to `CCCCCOC(=O)C1=C(C)NC2=C(C(=O)CC(C)(C)C2)C1c1ccc([N+](=O)[O-])cc1` (centres unmarked) [FLI-27], the ER tubule-to-sheets phenotype entry in the experiment with ER is listed as “elicited the tubule-to-sheets phenotype”.
As for `COc1ccc(C(=O)O)cc1Nc1nc2ccccc2nc1NS(=O)(=O)c1ccc(Cl)cc1` [FLI-16], the “NICD-EGFP and AICD production in isolated membranes” value in the experiment on γ-secretase was “did not affect in vitro γ-secretase activity”. The NotchΔE-EGFP processing result in the experiment on NotchΔE-EGFP [2] was “no influence on NotchΔE-EGFP processing”. Besides, the “localization of NotchΔE-EGFP/NICD-EGFP” value with NotchΔE-EGFP [3] is “did not alter the reporter localization”. Also, the “APPs (shedded ectodomain) secretion” value in the experiment with APP is “reduced APPs secretion”. The “ngn1 positive cell clusters along the spinal cord (ISH)” value with zebrafish embryos (compared to DMSO-treated control embryos) was “reduced”. Moreover, in the experiment with zebrafish embryos (relative to DMSO controls), the “ngn1 mRNA levels (qPCR)” value is “did not induce significant changes”. The “inhibition of endogenous Notch signaling” value in experiment [4] is given as “strongly”.
`O=S(=O)(NCCNC/C=C/c1ccc(Br)cc1)c1cccc2cnccc12` [H89, reference compound]: the “COPII budding reaction, compound added directly to the assay” value with COPII vesicles is reported as “completely blocked formation of COPII vesicles”.
On to `CC1=C(C(=O)OC2CCCCC2)C(c2ccccc2)C2=C(CC(C)(C)CC2=O)N1` (centres unmarked) [FLI-25], for which the “activity in NotchΔE-EGFP cells (enuc/nuc ratios)” value in the experiment with NotchΔE-EGFP [1] (SAR and prior-art comparison, FIG. 5a/5b) was “inactive”. For the same compound, the “COPII budding reaction, compound added directly to the assay” value with COPII vesicles is recorded as “neither 10 nor 100 μM of FLI-25 had an effect”.

Values taken from US9828344B2, “Inhibitors of the notch signaling pathway and secretion for use in medicine” (Leibniz-Institut für Altersforschung Fritz-Lipmann-Institut …, priority 2012, dated 2017).
